According to US8273775B2, “Non-steroidal brassinosteroid mimetic” (priority 2006, dated 2012):

Tested on: gene expression in Col-0 seedling shoots
Test: Microarray analysis (ATH1 Affymetrix) after BL or abrasin treatment
Type: in vivo, Arabidopsis
Conditions: 30 min
Experimental: FIG. 14: Clustering of gene expression profiles by QT-clust analysis. Clusters illustrating the major patterns of the data sets. Points: BIK-30: 30 μM abrasin 30 min; BL-30: 1 μM brassinolide 30 min; DMSO-30: control DMSO 30 min; BIK-120: 30 μM abrasin 120 min; BL-120: 1 μM brassinolide 120 min; DMSO-120: control DMSO 120 min.
Col-0 seeds were germinated vertically on ½ MS medium for 7 days under 16 h light/8 h dark cycles. The seedlings were overlaid with liquid ½ MS medium containing 1 μM brassinolide (BL, Fuji Chemical Industries, Ltd., Toyama, Japan), 30 μM abrasin (BIK, ChemBridge Corporation) and DMSO and treated for 30 and 120 min. The shoot parts were collected for RNA isolation. All sampling points were performed in three independent experiments. RNA was extracted using RNeasy kit (Qiagene). […] total RNA per array was used to hybridise the ATH1 Affymetrix Arabidopsis arrays according to standard procedure. The overrepresentation analyses were performed using BiNGO software (Maere et al., 2005).
We performed a microarray analysis using the Arabidopsis whole genome chip (Affymetix) to determine whether abrasin activated the expression of BR-inducible genes at transcriptional level. Wild-type Col-0 seedlings were exposed to 1 μM BL, 30 μM ABRASIN and DMSO (mock-treatment) for two time points (30 min and 120 min) and the shoot parts were collected for RNA isolation. The analysis of the variance of the normalized gene expression data took in account the variability parameters affecting the expression level: type of hormone treatment, duration of treatment and the interaction between these two.

O=C(O)CCC(=O)Nc1ccc(Br)cn1 [abrasin, 4-[(5-bromo-2-pyridinyl)amino]-4-oxobutanoic acid]
Fold-change AT4G16563 aspartyl protease family protein: 1.16
Fold-change AT4G16670 expressed protein: 0.79
Fold-change AT4G16780 homeobox-leucine zipper protein 4 (HAT4)/HD-ZIP protein: 0.54
Fold-change AT4G17250 expressed protein: 1.20
Fold-change AT4G17460 homeobox-leucine zipper protein 1 (HAT1)/HD-ZIP protein 1: 0.29
Fold-change AT4G21510 F-box family protein: 1.03
Fold-change AT4G23030 MATE efflux protein-related: 1.60
Fold-change AT4G23070 rhomboid family protein: 2.00
Fold-change AT4G23810 WRKY family transcription factor: 5.76
Fold-change AT4G24160 hydrolase, alpha/beta fold family protein: 1.42
Fold-change AT4G25620 hydroxyproline-rich glycoprotein family protein: 0.51
Fold-change AT4G25780 pathogenesis-related protein: 0.12
Fold-change AT4G27970 C4-dicarboxylate transporter/malic acid transport family protein: 2.43
Fold-change AT4G28240 wound-responsive protein-related: 0.49
Fold-change AT4G28490 leucine-rich repeat transmembrane protein kinase, putative: 1.20
Fold-change AT4G28703 expressed protein: 1.95
Fold-change AT4G28780 GDSL-motif lipase/hydrolase family protein: 1.00
Fold-change AT4G29070 expressed protein: 0.78
Fold-change AT4G30080 transcriptional factor B3 family protein: 0.89
Fold-change AT4G31020 expressed protein: 2.67
Fold-change AT4G32280 auxin-responsive AUX/IAA family protein (IAA29): 0.32
Fold-change AT4G33050 calmodulin-binding family protein: 2.38
Fold-change AT4G33700 CBS domain-containing protein: 0.73
Fold-change AT4G34610 homeodomain-containing protein: 1.02
Fold-change AT4G36110 auxin-responsive protein: 1.16
Fold-change AT4G36780 brassinosteroid signalling positive regulator-related: 0.49
Fold-change AT4G37240 expressed protein: 0.79
Fold-change AT4G37290 expressed protein: 0.95
Fold-change AT4G37590 phototropic-responsive NPH3 family protein: 1.04
Fold-change AT4G38840 auxin-responsive protein (SAUR14): 1.01
Fold-change AT4G38850 auxin-responsive protein (SAUR-AC1): 1.00
Fold-change AT4G38860 auxin-responsive protein (SAUR16): 0.79
Fold-change AT4G39400 brassinosteroid insensitive 1 (BRI1): 0.71
Fold-change AT5G02020 expressed protein: 1.01
Fold-change AT5G05690 cytochrome P450 90A1 (CYP90A1) (CYP90) (CPD): 0.63
Fold-change AT5G07690 myb family transcription factor (MYB29): 0.58
Fold-change AT5G08130 basic helix-loop-helix (bHLH) family protein (BIM2): 0.76
Fold-change AT5G12050 expressed protein: 0.52
Fold-change AT5G13180 no apical meristem (NAM) family protein: 0.77
Fold-change AT5G13740 sugar transporter family protein: 0.81
Fold-change AT5G14730 expressed protein: 0.38
Fold-change AT5G16200 50S ribosomal protein-related: 0.37
Fold-change AT5G16980 NADP-dependent oxidoreductase: 1.11
Fold-change AT5G18750 DNAJ heat shock N-terminal domain-containing protein: 1.91
Fold-change AT5G19200 short-chain dehydrogenase/reductase (SDR) family protein: 1.00
Fold-change AT5G19340 expressed protein: 0.83
Fold-change AT5G24030 C4-dicarboxylate transporter/malic acid transport family protein: 2.35
Fold-change AT5G24660 expressed protein: 2.43
Fold-change AT5G25240 expressed protein: 0.74
Fold-change AT5G25930 leucine-rich repeat family protein: 2.65
Fold-change AT5G27350 sugar-porter family protein 1 (SFP1): 1.07
Fold-change AT5G27670 histone H2A: 0.79
Fold-change AT5G38310 expressed protein: 1.00
Fold-change AT5G38990; AT5G39000 [AT5G38990, protein kinase family protein: 1.40
Fold-change AT5G39050 transferase family protein: 1.49
Fold-change AT5G39610 no apical meristem (NAM) family protein: 0.72
Fold-change AT5G39970 expressed protein: 1.42
Fold-change AT5G42830 transferase family protein: 1.03
Fold-change AT5G47370 homeobox-leucine zipper protein 2 (HAT2): 0.51
Fold-change AT5G48070 putative xyloglucan endotransglycosylase/hydrolase: 1.48
Fold-change AT5G48540 33 kDa secretory protein-related: 2.45
Fold-change AT5G51550 phosphate-responsive 1 family protein: 1.02
Fold-change AT5G54490 calcium-binding EF-hand protein, putative: 0.73
Fold-change AT5G54860 integral membrane transporter family protein: 1.69
Fold-change AT5G55970 zinc finger (C3HC4-type RING finger) family protein: 0.96
Fold-change AT5G56980 expressed protein: 0.43
Fold-change AT5G57190 phosphatidylserine decarboxylase: 1.32
Fold-change AT5G57780 expressed protein: 0.35
Fold-change AT5G59080 expressed protein: 0.46
Fold-change AT5G60200 Dof-type zinc finger domain-containing protein: 1.36
Fold-change AT5G60270 lectin protein kinase family protein: 0.96
Fold-change AT5G60630 expressed protein: 0.99
Fold-change AT5G61600 encodes a member of the ERF (ethylene response factor): 0.53
Fold-change AT5G62360 invertase/pectin methylesterase inhibitor family protein: 0.52
Fold-change AT5G65310 homeobox-leucine zipper protein 5 (HB-5)/HD-ZIP transcription factor 5: 0.90
Fold-change AT5G66420 expressed protein: 0.92
Fold-change AT5G66590 allergen V5/Tpx-1-related family protein: 0.53
Fold-change AT5G67450 zinc finger (C2H2 type) protein 1 (AZF1): 6.17
Fold-change of gene AT4G16140 (proline-rich family protein) (245479_at, Cluster 6): 1.16
Fold-change of gene AT4G15260 (UDP-glucoronosyl/UDP-glucosyl transferase family protein) (245543_at, Cluster 7): 1.41
Fold-change of gene AT5G09440 (phosphate-responsive protein, putative) (245885_at, Cluster 5): 0.38
Fold-change of gene AT1G77380 (amino acid carrier) (246389_at, Cluster 10): 1.32
Fold-change of gene AT5G15740 (expressed protein) (246516_at, Cluster 5): 0.78
Fold-change of gene AT5G65300 (expressed protein) (247177_at, Cluster 5): 0.31
Fold-change of gene AT5G64890 (expressed protein) (247205_at, Cluster 10): 1.01
Fold-change of gene AT5G63790 (no apical meristem (NAM) family protein) (247351_at, Cluster 9): 0.88
Fold-change of gene AT5G62630 (expressed protein) (247444_at, Cluster 7): 1.62
Fold-change of gene AT5G60850 (Dof-type zinc finger domain-containing protein) (247601_at, Cluster 10): 0.51
Fold-change of gene AT5G59510 (expressed protein) (247704_at, Cluster 9): 1.00
Fold-change of gene AT5G58660 (oxidoreductase. 2OG-Fe(II) oxygenase family protein) (247774_at, Cluster 5): 1.15
Fold-change of gene AT5G54120 (expressed protein) (248190_at, Cluster 5): 0.82
Fold-change of gene AT5G54130 (calcium-binding EF hand family protein) (248191_at, Cluster 5): 0.84
Fold-change of gene AT5G52900 (expressed protein) (248282_at, Cluster 6): 1.70
Fold-change of gene AT5G49100 (expressed protein) (248646_at, Cluster 9): 0.72
Fold-change of gene AT5G18060 (auxin-responsive protein) (250012_x_at, Cluster 6): 1.00
Fold-change of gene AT5G09800 (U-box domain-containing protein) (250493_at, Cluster 9): 1.04
Fold-change of gene AT5G08565 (expressed protein) (250537_at, Cluster 8): 0.87
Fold-change of gene AT5G03670 (expressed protein) (250907_at, Cluster 5): 0.61
Fold-change of gene AT5G01740 (expressed protein) (251072_at, Cluster 5): 0.33
Fold-change of gene AT3G63380 (calcium-transporting ATPase) (251176_at, Cluster 10): 0.85
Fold-change of gene AT3G60690 (auxin-responsive family protein) (251342_at, Cluster 9): 0.91
Fold-change of gene AT3G45610 (Dof-type zinc finger domain) (252586_at, Cluster 10): 0.94
Fold-change of gene AT3G44610 (protein kinase family protein) (252646_at, Cluster 5): 0.83
Fold-change of gene AT4G34760 (auxin-responsive family protein) (253255_at, Cluster 6): 1.80
Fold-change of gene AT4G34138 (UDP-glucoronosyl/UDP-glucosyl transferase family protein) (253281_at, Cluster 7): 1.52
Fold-change of gene AT4G31910 (transferase family protein) (253483_at, Cluster 5): 1.46
Fold-change of gene AT4G30410 (expressed protein) (253617_at, Cluster 5): 0.94
Fold-change of gene AT4G30450 (glycine-rich protein) (253629_at, Cluster 5): 0.84
Fold-change of gene AT4G26200 (1-aminocyclopropane-1-carboxylate synthase) (253999_at, Cluster 9): 1.11
Fold-change of gene AT4G03400 (auxin-responsive GH3 family protein) (255403_at, Cluster 6): 0.81
Fold-change of gene AT4G02700 (sulfate transporter) (255443_at, Cluster 7): 1.76
Fold-change of gene AT1G22190 (AP2 domain-containing transcription factor) (255926_at, Cluster 8): 0.45
Fold-change of gene AT1G66140 (zinc finger (C2H2 type) family protein) (256528_at, Cluster 6): 0.87
Fold-change of gene AT3G25655 (expressed protein) (256762_at, Cluster 8): 1.00
Fold-change of gene AT3G21420 (oxidoreductase, 2OG-Fe(II) oxygenase family protein) (256818_at, Cluster 7): 1.13
Fold-change of gene AT3G18280 (protease inhibitor/seed storage/lipid transfer protein) (257066_at, Cluster 5): 1.03
Fold-change of gene AT1G29440 (auxin-responsive family protein) (257506_at, Cluster 6): 0.96
Fold-change of gene AT3G29200 (chorismate mutase, chloroplast (CM1)) (257746_at, Cluster 5): 0.83
Fold-change of gene AT1G13260 (DNA-binding protein RAV1 (RAV1)) (259364_at, Cluster 8): 0.32
Fold-change of gene AT1G29500 (auxin-responsive protein) (259773_at, Cluster 6): 1.01
Fold-change of gene AT1G29510 (auxin-responsive protein) (259783_at, Cluster 6): 1.02
Fold-change of gene AT1G29450 (auxin-responsive protein) (259784_at, Cluster 6): 0.99
Fold-change of gene AT1G29460 (auxin-responsive protein) (259787_at, Cluster 6): 1.23
Fold-change of gene AT1G76690; AT1G76680 ([AT1G76690, 12-oxophytodienoate reductase (OPR2)) (259875_s_at, Cluster 7): 1.95
Fold-change of gene AT1G76620 (expressed protein) (259985_at, Cluster 8): 0.90
Fold-change of gene AT1G63720 (expressed protein) (260243_at, Cluster 10): 0.92
Fold-change of gene AT1G48100 (glycoside hydrolase family 28 protein) (260727_at, Cluster 8): 0.92
Fold-change of gene AT1G12200 (flavin-containing monooxygenase family protein) (261023_at, Cluster 7): 1.44
Fold-change of gene AT1G12845 (expressed protein) (261203_at, Cluster 6): 1.66
Fold-change of gene AT1G15550 (gibberellin 3-beta-dioxygenase) (261768_at, Cluster 6): 1.12
Fold-change of gene AT1G80840 (WRKY family transcription factor) (261892_at, Cluster 9): 0.43
Fold-change of gene AT1G80080 (leucine-rich repeat family protein) (262040_at, Cluster 6): 1.56
Fold-change of gene AT1G80130 (expressed protein) (262050_at, Cluster 8): 0.90
Fold-change of gene AT1G21680 (expressed protein) (262505_at, Cluster 10): 0.82
Fold-change of gene AT1G34245 (expressed protein) (262543_at, Cluster 6): 1.69
Fold-change of gene AT1G78460 (SOUL heme-binding family protein) (263126_at, Cluster 7): 1.01
Fold-change of gene AT1G78820; AT1G78830 ([AT1G78820, curculin-like (mannose-binding) lectin family protein) (264279_s_at, Cluster 7): 1.27
